The values below come from PMC4927141, “Structural Insights into a Novel Class of Aspartate Aminotransferase from Corynebacterium glutamicum” (PLoS ONE, 2016).

Data set [1] has as its target T1, CgAspAT (Corynebacterium glutamicum, UniProt Q8NTR2).
T1 construct: gene Cgl0240; pET30a, Ni-NTA purified, E. coli BL21(DE3)-T1R host; about 90 kDa homodimer; core domain Leu56-Gly304, C-terminal residue named Asn426
As to the kind of experiment: malate dehydrogenase-coupled NADH oxidation, […] nm. Type of data set: biochemical. To be noted: 300 mM L-aspartate, 50 mM α-ketoglutarate, 100 mM Tris-HCl pH 8.0, 303 K, no added PLP.

Data set [2] has as its target T1, CgAspAT. As to the kind of experiment: X-ray crystal structure, […] Å. To be noted: copurified, no PLP added; 28% PEG 3350, 200 mM ammonium citrate dibasic; near Lys259 (known aldimine lysine, covalent bond not stated for this structure). Type of data set: binding.
Data set [3] deals with the molecule itself. As to the kind of experiment: SEC; Sephacryl S-300 prep-grade column (320 ml), 40 mM Tris-HCl pH 8.0, 277 K; last step of the purification; dimer of the protein with itself.

`O=C(O)CCC(=O)C(=O)O` [α-ketoglutarate]: the “malate dehydrogenase-coupled NADH oxidation, 340 nm” value in data set [1] is “CgAspAT enzymes catalyze L-asparate and α-ketoglutarate to L-glutamate and oxaloacetate”.

`Cc1ncc(COP(=O)(O)O)c(C=O)c1O` [PLP]: the “X-ray crystal structure, 2.0 Å” value in data set [2] is “we observed the electron density for the PLP cofactor in our structure without adding it”.

In the case of `N[C@@H](CC(=O)O)C(=O)O` [L-aspartate], the “malate dehydrogenase-coupled NADH oxidation, 340 nm” value in data set [1] is “CgAspAT enzymes catalyze L-asparate and α-ketoglutarate to L-glutamate and oxaloacetate”.

B1: Aspartate aminotransferase from Corynebacterium glutamicum ATCC13032 (enzyme, Corynebacterium glutamicum ATCC 13032)
chain: MSSVSLQDFDAERIGLFHEDIKRKFDELKSKNLKLDLTRGKPSSEQLDFADELLALPGKGDFKAADGTDVRNYGGLDGIVDIRQIWADLLGVPVEQVLAGDASSLNIMFDVISWSYIFGNNDSVQPWSKEETVKWICPVPGYDRHFSITERFGFEMISVPMNEDGPDMDAVEELVKNPQVKGMWVVPVFSNPTGFTVTEDVAKRLSAMETAAPDFRVVWDNAYAVHTLTDEFPEVIDIVGLGEAAGNPNRFWAFTSTSKITLAGAGVSFFLTSAENRKWYTGHAGIRGIGPNKVNQLAHARYFGDAEGVRAVMRKHAASLAPKFNKVLEILDSRLAEYGVAQWTVPAGGYFISLDVVPGTASRVAELAKEAGIALTGAGSSYPLRQDPENKNLRLAPSLPPVEELEVAMDGVATCVLLAAAEHYAN
notes: Aspartate aminotransferase (CgAspAT) of Corynebacterium glutamicum ATCC 13032, gene amplified from chromosomal DNA and cloned into pET30a; residues up to Asn426 are named in the structure; also called CgAspAT; AspAT; source: E. coli BL21(DE3)-T1R, purified (Ni-NTA, size-exclusion chromatography on Sephacryl S-300)
The term stoichiometry N denotes the number of molecules, sites or subunits per partner or assembly. Regarding B1, in data set [3], the “stoichiometry N” value is 2.
